The numbers were not newly measured in US20180035685A1, “ANTIMICROBIAL COMPOSITIONS” (priority 2015, published 2018), which cites them from elsewhere.

For data set [1] the following is noted: stored in cold; applied at 300 ppm.
The subject of another data set is Listeria. As to conditions: pure form; Mandalari et al. (2007).

Regarding `O=c1oc2c(O)c(O)cc3c(=O)oc4c(O)c(O)cc1c4c23` [ellagic acid], in data set [1], the “Antimicrobial effect on raw beef MAP meat” value is on record as “no antimicrobial effect”. For `COc1ccc([C@@H]2CC(=O)c3c(O)cc(O[C@@H]4O[C@H](CO)[C@@H](O)[C@H](O)[C@H]4O[C@@H]4O[C@@H](C)[C@H](O)[C@@H](O)[C@H]4O)cc3O2)cc1O` [neohesperidin], the “Effect on Listerial growth in vitro” value with Listeria is “no effect on Listerial growth”.
